In patent US20170312260A1 (LAUNX BIOMEDICAL CO., LTD., priority 2014, published 2017):
“And” between values parts separate entries of the source, which are not always exact repeats. Identical values can stand only once. Like-named read-outs stand apart in the source and are kept apart here.

Legend:
[1] = test system: A549 (lung adenocarcinoma); test: WST-1 cell viability analysis, A549; format: cell-based; settings: Homo sapiens
Protocol: (§1) The cell numbers were counted and reseed as 2×10^6 in cell culture plate/flask. Then, the culture medium were added to a volume of 10 ml, and the cells were cultured for 2-3 days. Then, the cells were suspended for loading into 96-well plates. The number of cells was 3000 and the volume of the culture medium was 100 μl each well.
(§2) Removing the original culture medium from 96-well plate. Then add 100 μl of commercially drug at a concentration of 10 μM per well. After 72 hours, add the diluted WST-1 reagent to the well with 100 μl/well, and the diluted WST-1 reagent was acquired from the dilution of 9:1 medium and WST-1 stock reagent. Finally, the total volume of each well was 200 μl/well. Culture the 96-well plate at 37° C. for 30 to 90 minutes. Detecting and calculate the survival rate of each cancer cells with an ELISA reader at OD450 nm.

[2] = test system: HeLa (Cervix Adenocarcinoma); test: WST-1 cell viability analysis, HeLa; format: cell-based; settings: Homo sapiens
Protocol: as §1, §2

[3] = test system: C-33A (Cervical carcinoma); test: WST-1 cell viability analysis, C-33A; format: cell-based; settings: Homo sapiens, 72 hours, read-out: viability (survival rate) of C-33A cells
Protocol: as §1, §2

[4] = test system: prostate cancer cell line PC-3; test: WST-1 cell viability analysis, PC-3; format: cell-based; settings: Homo sapiens
Protocol: as §1, §2

[5] = test system: ovarian cancer cell line NIH-OVCAR-3; test: WST-1 cell viability analysis, NIH-OVCAR-3; format: cell-based; settings: Homo sapiens, OVCAR-3, 10 μM, 72 hours, read-out: viability (survival rate) of NIH-OVCAR-3 cells
[6] = test system: AGS (Gastric Adenocarcinoma); test: WST-1 cell viability analysis, AGS; format: cell-based; settings: Homo sapiens
Protocol: as §1, §2

[7] = test system: pancreatic cancer cell line AsPC-1; test: WST-1 cell viability analysis, AsPC-1; format: cell-based; settings: Homo sapiens
Protocol: as §1, §2

[8] = test system: osteosarcoma cell line U2OS; test: WST-1 cell viability analysis, U2OS; format: cell-based; settings: Homo sapiens
Protocol: as §1, §2

[9] = test system: BCC (basal cell carcinoma); test: WST-1 cell viability analysis, BCC; format: cell-based; settings: 72 hours, read-out: viability (survival rate) of BCC cells
[10] = WST-1 cell viability analysis, BEAS-2B; format: cell-based; settings: human
Source text: Subculture the different types of cancer cell lines. The cancer cells includes lung cancer, gastric cancer, hepatic cancer, colon cancer, skin cancer, cervical cancer, prostate cancer, bladder cancer, breast cancer, leukemia, pancreatic cancer, ovarian cancer, tongue cancer, osteosarcoma, and renal cancer. The normal cells used in the control group included kidney cell (HEK293) and human bronchial epithelial cell line BEAS-2B (as shown in Table 1).
as §1, §2

[11] = Animal model test, body weight and health status of mice; format: in vivo, female mice (BALB/cAnN.Cg-Foxn1^nu/CrlNarl); settings: for weight: single mice A-C
Protocol: In this invention, the female mice were (BALB/cAnN.Cg-Foxn1^nu/CrlNarl) purchased from National Laboratory Animal Center (Taiwan)). The weight of the mice were 21±1 g. These mice were subcutaneously injected with gastric cancer cells (AGS) and then put these mice into different cages at random. The drug test experiment was divided into three groups, include “normal control group”, “low dose group (100 mg/kg/day)”, and “high dose group (200 mg/kg/day)”. These mice were then injected test drug intraperitoneally once daily […]. The tumor sizes and body weight were measured twice a week. The tumor sizes were measured and calculated by formula: (L×W^2)/2. L represents the tumor longest length. W represents the tumor shortest diameter.

## CC1=C(C(=O)OC(C)C)C(c2cccc([N+](=O)[O-])c2)C(C(=O)OC2CN(C(c3ccccc3)c3ccccc3)C2)=C(N)N1 (stereo not drawn) [Azelnidipine]
[1]; A549, 10 μM, 72 hours, run 0524-10 min, read-out: viability (survival rate) of A549 cells
  viability at 10 µM: 81.4%
[1]; A549, 10 μM, 72 hours, run 0526-10 min, read-out: viability (survival rate) of A549 cells
  viability at 10 µM: 119%
[1]; A549, 10 μM, 72 hours, run 0529-10 min, read-out: viability (survival rate) of A549 cells
  viability at 10 µM: 69.7%
[1]; A549, 10 μM, 72 hours, run 0531-10 min, read-out: viability (survival rate) of A549 cells
  viability at 10 µM: 80.2%
[1]; A549, 72 h, 10 μM, average of 4 tests, read-out: Average viability of A549 cells
  viability at 10 µM: 87.5%
[2]; 72 h, average of 4 tests, read-out: Average viability of HeLa cells
  viability at 10 µM: 87%
[2]; 72 hours, run 0524-10 min, read-out: viability (survival rate) of HeLa cells
  viability at 10 µM: 70.4%
[2]; 72 hours, run 0526-10 min, read-out: viability (survival rate) of HeLa cells
  viability at 10 µM: 93.7%
[2]; 72 hours, run 0529-10 min, read-out: viability (survival rate) of HeLa cells
  viability at 10 µM: 81.4%
[2]; 72 hours, run 0531-10 min, read-out: viability (survival rate) of HeLa cells
  viability at 10 µM: 103%
[3]; run 0524-10 min
  viability at 10 µM: 142%
[3]; run 0526-10 min
  viability at 10 µM: 111%
[3]; run 0529-10 min
  viability at 10 µM: 123%
[3]; run 0531-10 min
  viability at 10 µM: 117%
[4]; PC-3, 10 μM, 72 hours, run PC-3-0524-10 min, read-out: viability (survival rate) of PC-3 cells
  viability at 10 µM: 122%
[4]; PC-3, 10 μM, 72 hours, run PC-3-0526-10 min, read-out: viability (survival rate) of PC-3 cells
  viability at 10 µM: 149%
[4]; PC-3, 10 μM, 72 hours, run PC-3-0529-10 min, read-out: viability (survival rate) of PC-3 cells
  viability at 10 µM: 110%
[4]; PC-3, 10 μM, 72 hours, run PC-3-0531-10 min, read-out: viability (survival rate) of PC-3 cells
  viability at 10 µM: 102%
[4]; PC-3, 72 h, 10 μM, average of 4 tests, read-out: Average viability of PC-3 cells
  viability at 10 µM: 121%
[5]; run 7-3-30 min
  viability at 10 µM: 106%
[5]; run 7-4-30 min (fourth column)
  viability at 10 µM: 104%
[5]; run 7-4-30 min (second column)
  viability at 10 µM: 99.1%
[6]; 72 h, average of 4 tests, read-out: average viability of AGS cells
  viability at 10 µM: 90.2%
[6]; 72 hours, run 0510-10 min, read-out: viability (survival rate) of AGS cells
  viability at 10 µM: 120%
[6]; 72 hours, run 0512-10 min, read-out: viability (survival rate) of AGS cells
  viability at 10 µM: 124%
[6]; 72 hours, run 0515-10 min, read-out: viability (survival rate) of AGS cells
  viability at 10 µM: 42.1%
[6]; 72 hours, run 0517-10 min, read-out: viability (survival rate) of AGS cells
  viability at 10 µM: 74.3%
[7]; ASPC1, 10 μM, 72 hours, run 1-4-30 min, read-out: viability (survival rate) of AsPC-1 cells
  viability at 10 µM: 58.6%
[7]; ASPC1, 10 μM, 72 hours, run 1-7-3-30 min, read-out: viability (survival rate) of AsPC-1 cells
  viability at 10 µM: 104%
[7]; ASPC1, 10 μM, 72 hours, run 1-7-4-30 min, read-out: viability (survival rate) of AsPC-1 cells
  viability at 10 µM: 46.1%
[7]; ASPC1, 10 μM, 72 hours, run 1-7-7-30 min, read-out: viability (survival rate) of AsPC-1 cells
  viability at 10 µM: 13.7%
[7]; ASPC1, 72 h, 10 μM, average of 4 tests, read-out: Average viability of AsPC-1 cells
  viability at 10 µM: 55.6%
[8]; 72 h, summary (U2OS), read-out: Inhibitory effect, osteosarcoma
  viability at 10 µM: 69.4%
[8]; 72 hours, run 6-26-10 min, read-out: viability (survival rate) of U2OS cells
  viability at 10 µM: 53.3%
[8]; 72 hours, run 6-28-10 min, read-out: viability (survival rate) of U2OS cells
  viability at 10 µM: 78.3%
[8]; 72 hours, run 6-30-10 min, read-out: viability (survival rate) of U2OS cells
  viability at 10 µM: 84.8%
[8]; 72 hours, run 7-3-10 min, read-out: viability (survival rate) of U2OS cells
  viability at 10 µM: 61.2%
[9]; run 0602-30 min
  viability at 10 µM: 77.7%
[9]; run 0605-10 min
  viability at 10 µM: 127%
[9]; run 0607-10 min
  viability at 10 µM: 95.7%
[10]; BEAS-2B bronchial epithelial cells, run 0510-10 min, read-out: viability (survival rate) of BEAS-2B cells
  viability at 72 h, 10 µM: 61.3%
[10]; BEAS-2B cells (normal bronchial epithelial cell line), average of 4 tests, read-out: average viability of BEAS-2B cells
  viability at 72 h, 10 µM: 77.5%
[10]; BEAS-2B cells (normal bronchial epithelial cell line), run 0512-10 min, read-out: viability (survival rate) of BEAS-2B cells
  viability at 72 h, 10 µM: 61.8%
[10]; BEAS-2B cells (normal bronchial epithelial cell line), run 0515-10 min, read-out: viability (survival rate) of BEAS-2B cells
  viability at 72 h, 10 µM: 102%
[10]; BEAS-2B cells (normal bronchial epithelial cell line), run 0517-10 min, read-out: viability (survival rate) of BEAS-2B cells
  viability at 72 h, 10 µM: 85.4%
[11]; both high and low doses
  health status / death of tested mice during the treatment (in words): without death
[11]; high dose (200 mg/kg/day) i.p., Fifth measurement, 200 mg/kg/day
  weight: 20 g and 21 g
[11]; high dose (200 mg/kg/day) i.p., First measurement, 200 mg/kg/day
  weight: 20 g and 19.5 g
[11]; high dose (200 mg/kg/day) i.p., Fourth measurement, 200 mg/kg/day
  weight: 20 g and 21 g
[11]; high dose (200 mg/kg/day) i.p., Second measurement, 200 mg/kg/day
  weight: 19 g and 20 g
[11]; high dose (200 mg/kg/day) i.p., Third measurement, 200 mg/kg/day
  weight: 20.5 g and 19 g and 20 g
[11]; low dose (100 mg/kg/day) i.p., Fifth measurement, 100 mg/kg/day
  weight: 20 g and 21 g
[11]; low dose (100 mg/kg/day) i.p., First measurement
  weight: 21 g
[11]; low dose (100 mg/kg/day) i.p., Fourth measurement, 100 mg/kg/day
  weight: 20 g and 21 g
[11]; low dose (100 mg/kg/day) i.p., Second measurement, 100 mg/kg/day
  weight: 20 g and 19 g
[11]; low dose (100 mg/kg/day) i.p., Third measurement, 100 mg/kg/day
  weight: 19.5 g and 19 g and 18.5 g
[11]; low dose and high dose
  weight of mice during the experiment (in words): did not show a significant decrease
